In ChEMBL document CHEMBL1156989, “Discovery of novel small molecule orally bioavailable C-X-C chemokine receptor 4 antagonists that are potent inhibitors of T-tropic (X4) HIV-1 replication” (J Med Chem, 2010):

Legend:
[1] = tested on: Human immunodeficiency virus 1; test: Antiviral activity against HIV1 NL4.3 infected in human PBMC assessed as inhibition of virus-induced cytopathicity; assay type: functional, organism-based; settings: Human immunodeficiency virus 1, NL4.3
[2] = Cytotoxicity against human MT4 cells expressing CD4 and CXCR4 assessed as cell viability; settings: MT4 cells expressing CD4 and CXCR4
[3] = tested on: Human immunodeficiency virus 1; test: Antiviral activity against HIV1 NL4.3 infected in human MT4 cells expressing CD4 and CXCR4 assessed as inhibition of virus-induced cytopathicity; assay type: functional, organism-based; settings: Human immunodeficiency virus 1, NL4.3, MT4
[4] = tested on: Human immunodeficiency virus 1; test: Antiviral activity against HIV1 3B infected in human MT-4 cells assessed as inhibition of virus-induced cytopathicity; settings: Human immunodeficiency virus 1, 3B
[5] = molecular target: C-X-C chemokine receptor type 4 (Homo sapiens, UniProt P61073); test: Inhibition of anti-CXCR4 12G5 monoclonal antibody to CXCR4 in human SUP-T1 cells pretreated for 30 mins by flow cytometry; assay type: cell-based
[6] = tested on: Human immunodeficiency virus 1; test: Ratio of IC50 for HIV1 NL4.3 infected in human PBMC to IC50 for HIV1 NL4.3 infected in human MT4 cells; assay type: functional
[7] = tested on: Human immunodeficiency virus 1; test: Ratio of IC90 for HIV1 NL4.3 infected in human PBMC to IC90 for HIV1 NL4.3 infected in human MT4 cells; assay type: functional

Sequence of C-X-C chemokine receptor type 4 (P61073 whole entry): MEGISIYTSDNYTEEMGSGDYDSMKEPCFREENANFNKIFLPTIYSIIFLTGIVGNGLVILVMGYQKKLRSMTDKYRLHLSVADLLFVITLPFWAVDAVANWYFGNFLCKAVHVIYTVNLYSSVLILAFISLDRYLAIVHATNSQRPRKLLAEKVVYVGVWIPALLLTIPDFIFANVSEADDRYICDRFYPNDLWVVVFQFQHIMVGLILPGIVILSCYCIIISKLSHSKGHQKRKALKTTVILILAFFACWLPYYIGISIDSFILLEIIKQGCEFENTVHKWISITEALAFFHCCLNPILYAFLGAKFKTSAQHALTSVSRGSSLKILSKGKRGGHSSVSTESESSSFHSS

What does the source list for `c1ccc(CNCc2ccc(CN(Cc3nc4ccccc4[nH]3)C3CCCc4cccnc43)cc2)nc1` (configuration not stated)?
IC50 [1]: 277 nM; CC50 [2]: 23000 nM; IC50 [3]: 60 nM; IC50 [4]: 60 nM; IC50 [5]: 250 nM; Ratio IC50 [6]: 5; Ratio [7]: 4
